In ChEMBL document CHEMBL1201862, “PubChem BioAssay data set” (2004):
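Results reflect a 48-hour exposure of cells in 96-well plates to compound at five concentrations. GI50 marks 50% less growth.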 Active and inactive are the calls of the source. Rule as the data show it: active = GI50 up to about 1.1 µM and inactive = higher.

Experiments:
Test in all cases: NCI tumour cell line growth inhibition, 48 h
A549 = test system: A549
ACHN = test system: ACHN
HCC 2998 = test system: HCC 2998
HCT-116 = test system: HCT-116
HCT-15 = test system: HCT-15
HOP-62 = test system: HOP-62
HOP-92 = test system: HOP-92
KM12 = test system: KM12
OVCAR-5 = test system: OVCAR-5
RPMI-8226 = test system: RPMI-8226
RXF 393 = test system: RXF 393
SK-MEL-2 = test system: SK-MEL-2
SW-620 = test system: SW-620
TK-10 = test system: TK-10
COLO 205 = test system: COLO 205
DU-145 = test system: DU-145
MCF7 = test system: MCF7
MDA-N = test system: MDA-N
T47D = test system: T47D
SR = test system: SR

Compound | GI50 (A549) | GI50 (ACHN) | GI50 (HCC 2998) | GI50 (HCT-116) | GI50 (HCT-15) [µM] | GI50 (HOP-62) | GI50 (HOP-92) | GI50 (KM12) | GI50 (OVCAR-5) | GI50 (RPMI-8226) | GI50 (RXF 393) | GI50 (SK-MEL-2) | GI50 (SW-620) | GI50 (TK-10) | GI50 (COLO 205) | GI50 (DU-145) | GI50 (MCF7) | GI50 (MDA-N) | GI50 (T47D) | GI50 (SR)
CC1(C)C2CCC3(OCCO3)C1C(O)C2 (stereo not drawn) | > 100 µM (inactive) | > 100 µM (inactive) | > 100 µM (inactive) | > 100 µM (inactive) | > 100 | > 100 µM (inactive) | > 100 µM (inactive) | > 100 µM (inactive) | > 100 µM (inactive) | > 100 µM (inactive) | > 100 µM (inactive) | > 100 µM (inactive) | > 100 µM (inactive) | > 100 µM (inactive) | – | – | – | – | – | –
Cn1c2c(c3ccccc31)CCN(CCCCN1CCCCC1)C2=O | > 100 µM (inactive) | > 100 µM (inactive) | – | 84.5 µM (inactive) | > 100 | > 100 µM (inactive) | > 100 µM (inactive) | – | > 100 µM (inactive) | > 100 µM (inactive) | > 100 µM (inactive) | > 100 µM (inactive) | > 100 µM (inactive) | > 100 µM (inactive) | > 100 µM (inactive) | – | – | – | – | –
Clc1ccc2c(c1)CC1C[N+]3=C(CCCCC3)C1=C2 (stereo not drawn) | 30.3 µM (inactive) | > 100 µM (inactive) | – | > 100 µM (inactive) | > 100 | > 100 µM (inactive) | 7.1 µM (inactive) | 50.5 µM (inactive) | > 100 µM (inactive) | – | > 100 µM (inactive) | 28.8 µM (inactive) | > 100 µM (inactive) | 69.2 µM (inactive) | 28.9 µM (inactive) | > 100 µM (inactive) | 64 µM (inactive) | 94.2 µM (inactive) | 29.6 µM (inactive) | –
O=C1CN(c2ccccc2)C(=O)C1C(=O)Nc1ccc(Cl)c(Cl)c1 (stereo not drawn) | 2.72 µM (inactive) | 4 µM (inactive) | – | – | 1.56 | 2.22 µM (inactive) | 2.53 µM (inactive) | – | 30.4 µM (inactive) | – | – | – | 1.21 µM (inactive) | 7.05 µM (inactive) | 8.07 µM (inactive) | – | – | – | – | 0.581 µM (active)
CCOC(=O)c1nc2cc(C(F)(F)F)ccc2nc1Oc1ccc(F)cc1 | > 100 µM (inactive) | > 100 µM (inactive) | > 100 µM (inactive) | 4.49 µM (inactive) | > 100 | – | 87.3 µM (inactive) | > 100 µM (inactive) | > 100 µM (inactive) | > 100 µM (inactive) | 54 µM (inactive) | > 100 µM (inactive) | > 100 µM (inactive) | > 100 µM (inactive) | > 100 µM (inactive) | > 100 µM (inactive) | > 100 µM (inactive) | > 100 µM (inactive) | 5.9 µM (inactive) | > 100 µM (inactive)
N#CC(=N)c1ncn(-c2ccccc2N)c1N | > 100 µM (inactive) | > 100 µM (inactive) | > 100 µM (inactive) | > 100 µM (inactive) | > 100 | > 100 µM (inactive) | – | > 100 µM (inactive) | > 100 µM (inactive) | > 100 µM (inactive) | – | > 100 µM (inactive) | > 100 µM (inactive) | > 100 µM (inactive) | > 100 µM (inactive) | > 100 µM (inactive) | > 100 µM (inactive) | > 100 µM (inactive) | > 100 µM (inactive) | > 100 µM (inactive)
COc1ccc([C@H]2C=[N+]([O-])O[C@H](OC3CCCC3)[C@@H]2OC(C)=O)cc1OC | 29.4 µM (inactive) | 22.2 µM (inactive) | 13.2 µM (inactive) | – | 29.2 | 72.1 µM (inactive) | 14.3 µM (inactive) | 26.4 µM (inactive) | – | 23.5 µM (inactive) | 13.3 µM (inactive) | 69.3 µM (inactive) | 19.8 µM (inactive) | 23.1 µM (inactive) | 15.9 µM (inactive) | 29.3 µM (inactive) | 22.3 µM (inactive) | 37.8 µM (inactive) | 16.1 µM (inactive) | 41.8 µM (inactive)
Cc1cc2c(C(C)C)c(O)c(O)c(/C=N/c3ccccc3)c2c(O)c1-c1c(C)cc2c(C(C)C)c(O)c(O)c(/C=N/c3ccccc3)c2c1O | > 100 µM (inactive) | > 100 µM (inactive) | > 100 µM (inactive) | > 100 µM (inactive) | > 100 | > 100 µM (inactive) | > 100 µM (inactive) | > 100 µM (inactive) | > 100 µM (inactive) | > 100 µM (inactive) | > 100 µM (inactive) | > 100 µM (inactive) | > 100 µM (inactive) | > 100 µM (inactive) | > 100 µM (inactive) | – | – | – | – | > 100 µM (inactive)
CCOC(=O)CC(NC(=O)c1ccc(/N=N/N(C)C)cc1)C(=O)OCC (stereo not drawn) | > 100 µM (inactive) | > 100 µM (inactive) | > 100 µM (inactive) | > 100 µM (inactive) | > 100 | > 100 µM (inactive) | – | > 100 µM (inactive) | > 100 µM (inactive) | > 100 µM (inactive) | – | > 100 µM (inactive) | > 100 µM (inactive) | > 100 µM (inactive) | > 100 µM (inactive) | – | – | – | – | > 100 µM (inactive)
O=C1NC2(CCCCC2)C2CCCCCC12 (stereo not drawn) | > 100 µM (inactive) | > 100 µM (inactive) | > 100 µM (inactive) | > 100 µM (inactive) | > 100 | > 100 µM (inactive) | – | > 100 µM (inactive) | > 100 µM (inactive) | – | > 100 µM (inactive) | – | > 100 µM (inactive) | > 100 µM (inactive) | – | – | – | – | – | > 100 µM (inactive)
C1CCC2(CC1)O[C@@H]1[C@@H](O2)[C@@H](O[C@H]2O[C@@H]3COC4(CCCCC4)O[C@H]3[C@@H]3OC4(CCCCC4)O[C@@H]23)O[C@@H]2COC3(CCCCC3)O[C@@H]12 | > 100 µM (inactive) | > 100 µM (inactive) | – | > 100 µM (inactive) | – | > 100 µM (inactive) | > 100 µM (inactive) | > 100 µM (inactive) | > 100 µM (inactive) | 36.6 µM (inactive) | > 100 µM (inactive) | > 100 µM (inactive) | > 100 µM (inactive) | > 100 µM (inactive) | > 100 µM (inactive) | > 100 µM (inactive) | > 100 µM (inactive) | > 100 µM (inactive) | > 100 µM (inactive) | –
c1ccc(/N=C2/SC3=Nc4cccc5cccc(c45)N3/C2=N/c2ccccc2)cc1 | – | – | > 100 µM (inactive) | > 10 µM (inactive) | > 100 | > 100 µM (inactive) | > 100 µM (inactive) | > 100 µM (inactive) | > 100 µM (inactive) | > 100 µM (inactive) | > 100 µM (inactive) | > 100 µM (inactive) | – | – | > 100 µM (inactive) | > 100 µM (inactive) | > 100 µM (inactive) | > 100 µM (inactive) | > 100 µM (inactive) | > 100 µM (inactive)
COc1ccc(N2C(=O)C3C=CC(n4[nH]c(=O)n(Cc5ccccc5)c4=O)CC3C2=O)cc1 (stereo not drawn) | > 100 µM (inactive) | > 100 µM (inactive) | > 100 µM (inactive) | > 100 µM (inactive) | > 100 | > 100 µM (inactive) | > 100 µM (inactive) | > 100 µM (inactive) | > 100 µM (inactive) | > 100 µM (inactive) | > 100 µM (inactive) | > 100 µM (inactive) | > 100 µM (inactive) | > 100 µM (inactive) | > 100 µM (inactive) | – | – | – | – | –
COc1cc2c(cc1OC)C(Cl)C(c1cc(OC)c(OC)c(OC)c1)=C2Cl (stereo not drawn) | – | 13.6 µM (inactive) | – | – | 14.6 | – | 4.73 µM (inactive) | – | – | 8.71 µM (inactive) | – | 15.5 µM (inactive) | 18.8 µM (inactive) | 20.3 µM (inactive) | 17.5 µM (inactive) | – | – | – | – | –
CCOC1=C2N=C(Cc3ccc(F)cc3)NC2C(=O)c2ccccc21 (stereo not drawn) | – | 14 µM (inactive) | 25.8 µM (inactive) | > 10 µM (inactive) | – | 58.9 µM (inactive) | 10.7 µM (inactive) | 27.5 µM (inactive) | 45.4 µM (inactive) | 11.6 µM (inactive) | 18.3 µM (inactive) | 17.6 µM (inactive) | – | 32.6 µM (inactive) | 23.3 µM (inactive) | – | – | – | – | –
CCOC(=O)CNC(=O)C(CCC(=O)N(C)O)NC(=O)CCC(N)C(=O)O (stereo not drawn) | > 100 µM (inactive) | > 100 µM (inactive) | > 100 µM (inactive) | > 100 µM (inactive) | > 100 | > 100 µM (inactive) | > 100 µM (inactive) | > 100 µM (inactive) | > 100 µM (inactive) | > 100 µM (inactive) | > 100 µM (inactive) | > 100 µM (inactive) | > 100 µM (inactive) | > 100 µM (inactive) | > 100 µM (inactive) | > 100 µM (inactive) | > 100 µM (inactive) | > 100 µM (inactive) | > 100 µM (inactive) | –
NC1(C(=O)O)CCc2ccc(N(CCCl)CCCl)cc2C1 (stereo not drawn) | 61.7 µM (inactive) | – | > 100 µM (inactive) | 0.01 µM (active) | > 100 | 22.4 µM (inactive) | > 100 µM (inactive) | > 100 µM (inactive) | 39.9 µM (inactive) | 84.3 µM (inactive) | > 100 µM (inactive) | 38.7 µM (inactive) | > 100 µM (inactive) | – | > 100 µM (inactive) | – | 33.8 µM (inactive) | – | – | –
COC(=O)c1cccc(C(=O)OC)c1 | > 100 µM (inactive) | > 100 µM (inactive) | > 100 µM (inactive) | > 100 µM (inactive) | > 100 | > 100 µM (inactive) | > 100 µM (inactive) | > 100 µM (inactive) | > 100 µM (inactive) | > 100 µM (inactive) | > 100 µM (inactive) | > 100 µM (inactive) | > 100 µM (inactive) | > 100 µM (inactive) | > 100 µM (inactive) | – | – | – | – | > 100 µM (inactive)
